Literature values, collected in PMC4832855 (Cancer Science, 2016).

Experiments:
Conditions in all cases: cited from earlier work
patients = test system: patients
Btc = test system: Btc
IGF‐1R = test system: IGF‐1R
Jak2 = test system: Jak2
Lck = test system: Lck
p381 = test system: p381
AurB = test system: AurB
Src = test system: Src
AurA = test system: AurA
IR = test system: IR
Met = test system: Met

SMILES	Activity as monotherapy in early clinical trials (patients)	IC50 (Btc) [µM]	IC50 (IGF‐1R) [µM]	IC50 (Jak2) [µM]	IC50 (Lck) [µM]	IC50 (p381) [µM]	IC50 (AurB) [µM]	IC50 (Src) [µM]	IC50 (AurA) [µM]	Overall or progression‐free survival compared to placebo (patients; monotherapy, phase III, metastatic adrenocortical carcinoma)	IC50 (IR) [µM]	IC50 (Met) [µM]
C[C@@]1(C(=O)Nc2ccc(F)nc2)CCCN1c1nc(Nc2cc(C3CC3)n[nH]2)c2cccn2n1 [BMS‐754807]	only modest activity	–	–	–	–	–	–	–	–	–	–	–
C[C@]1(O)C[C@@H](c2nc(-c3ccc4ccc(-c5ccccc5)nc4c3)c3c(N)nccn32)C1 [Linsitinib]	only modest activity	> 10	[…]	> 10	> 10	> 10	> 10	> 10	> 10	did not increase	0.075	> 10
